The values below come from patent US20040024024A1, “Aromatic sulfone hydroxamates and their use as protease inhibitors” (priority 2001, published 2004).

Some results are limits rather than exact numbers.

For orientation: IC50 means the concentration that inhibits the measured activity by half.

The target in one assay is T1, Human recombinant MMP-1 (Homo sapiens, UniProt P03956).
T1 construct: made in house; host or cells: MMP-1-transfected HT-1080 cells (spent media)
T1 sequence (P03956 100-469): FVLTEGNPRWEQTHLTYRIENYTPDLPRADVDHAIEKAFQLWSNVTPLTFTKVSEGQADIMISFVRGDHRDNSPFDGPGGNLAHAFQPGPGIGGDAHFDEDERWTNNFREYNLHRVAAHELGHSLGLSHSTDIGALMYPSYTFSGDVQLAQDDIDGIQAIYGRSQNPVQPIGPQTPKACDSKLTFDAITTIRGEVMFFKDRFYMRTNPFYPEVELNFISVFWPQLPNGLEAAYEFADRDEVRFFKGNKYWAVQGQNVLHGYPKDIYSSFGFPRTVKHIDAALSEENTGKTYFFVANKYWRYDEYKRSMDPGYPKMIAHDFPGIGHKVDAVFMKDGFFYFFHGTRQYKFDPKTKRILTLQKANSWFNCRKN
The assay can be described thus: In vitro MMP inhibition, IC50 determination (fluorogenic substrate I). It counts as biochemical. The method, boiled down:
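Inhibitor dilutions were made in 100 mM Tris-HCl/100 mM NaCl/10 mM CaCl2 buffer, pH 7.5, and incubated at room temperature with activated proenzyme (from transfected HT-1080 media; APMA or trypsin) and 4 μM quenched methoxycoumarin peptide substrate. Loss of 415 nm fluorescence (328 nm excitation) against concentration gave IC50.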

The target in a further assay is T2, Human recombinant MMP-2 (Homo sapiens, UniProt P08253).
T2 construct: made in house; host or cells: MMP-2-transfected p2AHT2 cells
T2 sequence (P08253 110-660): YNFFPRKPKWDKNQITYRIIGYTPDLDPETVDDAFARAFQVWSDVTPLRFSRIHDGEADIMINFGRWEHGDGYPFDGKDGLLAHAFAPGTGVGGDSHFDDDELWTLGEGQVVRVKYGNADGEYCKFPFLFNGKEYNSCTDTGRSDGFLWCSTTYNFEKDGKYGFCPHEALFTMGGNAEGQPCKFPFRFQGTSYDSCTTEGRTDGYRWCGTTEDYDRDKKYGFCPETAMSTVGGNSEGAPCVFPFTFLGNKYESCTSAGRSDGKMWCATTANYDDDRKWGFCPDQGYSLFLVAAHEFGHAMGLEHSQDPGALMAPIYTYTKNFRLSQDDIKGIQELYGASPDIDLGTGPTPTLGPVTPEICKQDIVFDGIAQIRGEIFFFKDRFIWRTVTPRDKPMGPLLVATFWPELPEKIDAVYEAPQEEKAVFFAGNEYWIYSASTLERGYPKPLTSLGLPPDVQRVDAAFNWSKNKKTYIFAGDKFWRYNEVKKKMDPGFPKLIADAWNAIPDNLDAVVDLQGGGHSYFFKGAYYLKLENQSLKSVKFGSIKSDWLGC
The description is as above. It is filed as biochemical. The method, boiled down:
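IC50 was derived from the concentration-dependent fall in fluorescence (ex 328, em 415 nm) on Gly-Leu cleavage of 4 μM MCA/Dpa-quenched substrate I. Assays ran at room temperature in pH 7.5 Tris/NaCl/CaCl2/Brij buffer with MMP-2 activated by trypsin or APMA; inhibitors were diluted from 1% DMSO stocks.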

For the molecule `O=C(NO)C1(S(=O)(=O)c2ccc(OCCCc3cccc(-c4ccc(F)cc4)c3)cc2)CCN(C2CC2)CC1` [Example 139], the IC50 at Human recombinant MMP-1 (value outside parenthesis) is over 10000 nM; at Human recombinant MMP-2 (value outside parenthesis) it was 208 nM.

On to `COCCN1CCC(C(=O)NO)(S(=O)(=O)c2ccc(OCCCc3cccc(-c4ccc(F)cc4)c3)cc2)CC1` [Example 140], for which the IC50 was over 10000 nM at Human recombinant MMP-1 (value outside parenthesis) and 48 nM on Human recombinant MMP-2 (value outside parenthesis).

Turning to `O=C(NO)C1(S(=O)(=O)c2ccc(OCCCc3cccc(-c4cccnc4)c3)cc2)CCOCC1` [Example 150], the values for the IC50 on Human recombinant MMP-1 (value outside parenthesis) and at Human recombinant MMP-2 (value outside parenthesis) were over 10000 nM and 136 nM, respectively.

With `COCCN1CCC(C(=O)NO)(S(=O)(=O)c2ccc(OCCCc3nc(-c4ccccc4OC(F)(F)F)no3)cc2)CC1` [Example 152], the IC50 at Human recombinant MMP-1 (value outside parenthesis) was over 10000 nM; at Human recombinant MMP-2 (value outside parenthesis), 58.8 nM.

For the molecule `O=C(NO)C1(S(=O)(=O)c2ccc(OCCCc3cccc(Br)c3)cc2)CCOCC1` [Example 154], the IC50 on Human recombinant MMP-1 (value outside parenthesis) is over 10000 nM; at Human recombinant MMP-2 (value outside parenthesis), 10.9 nM.

Regarding `CCc1ccccc1-c1noc(CCCOc2ccc(S(=O)(=O)C3(C(=O)NO)CCN(CCOC)CC3)cc2)n1` [Example 155], the figures for the IC50 at Human recombinant MMP-1 (value outside parenthesis) and on Human recombinant MMP-2 (value outside parenthesis) were over 10000 nM and 13.8 nM, respectively.

Consider `O=C(NO)C1(S(=O)(=O)c2ccc(OCCOc3cccc(-c4ccccc4)c3)cc2)CCOCC1` [Example 157], for which the IC50 is over 10000 nM at Human recombinant MMP-1 (value outside parenthesis) and 182 nM at Human recombinant MMP-2 (value outside parenthesis).

Regarding `CC(C)c1ccc(-c2cccc(CCCOc3ccc(S(=O)(=O)C4(C(=O)NO)CCOCC4)cc3)c2)cc1` [Example 160], the IC50 at Human recombinant MMP-1 (value outside parenthesis) and at Human recombinant MMP-2 (value outside parenthesis) was over 10000 nM in each case.

Regarding `O=C(NO)C1(S(=O)(=O)c2ccc(OCCCc3cccc(-c4cccc(F)c4)c3)cc2)CCOCC1` [Example 161], the values for the IC50 at Human recombinant MMP-1 (value outside parenthesis) and at Human recombinant MMP-2 (value outside parenthesis) were over 10000 nM and 1000 nM, respectively.

`O=C(NO)C1(S(=O)(=O)c2ccc(OCCCc3cccc(-c4ccccc4F)c3)cc2)CCOCC1` [Example 163]: the IC50 on Human recombinant MMP-1 (value outside parenthesis) is over 10000 nM; on Human recombinant MMP-2 (value outside parenthesis) it was 1370 nM.

For `COCCN1CCC(C(=O)NO)(S(=O)(=O)c2ccc(OCCCc3nc(-c4ccc(CC(C)C)cc4)no3)cc2)CC1` [Example 175], the IC50 on Human recombinant MMP-1 (value outside parenthesis) was over 10000 nM; at Human recombinant MMP-2 (value outside parenthesis), 438 nM.

Take `COCCN1CCC(C(=O)NO)(S(=O)(=O)c2ccc(OCCCc3nnc(-c4ccccc4C(F)(F)F)o3)cc2)CC1` [Example 178]: the IC50 was over 10000 nM on Human recombinant MMP-1 (value outside parenthesis) and 28.4 nM on Human recombinant MMP-2 (value outside parenthesis).

As to `O=C(CCCOc1ccc(S(=O)(=O)C2(C(=O)NO)CCOCC2)cc1)Nc1cccc(OC(F)(F)F)c1` [Example 181], the IC50 at Human recombinant MMP-1 (value outside parenthesis) was over 10000 nM; on Human recombinant MMP-2 (value outside parenthesis), 13.9 nM.

Turning to `CC(C)c1cccc(NC(=O)CCCOc2ccc(S(=O)(=O)C3(C(=O)NO)CCOCC3)cc2)c1` [Example 182], the IC50 is over 10000 nM on Human recombinant MMP-1 (value outside parenthesis) and 33.1 nM at Human recombinant MMP-2 (value outside parenthesis).

With `COCCN1CCC(C(=O)NO)(S(=O)(=O)c2ccc(OCCCc3nc(-c4ccc(OC(F)(F)F)cc4)no3)cc2)CC1` [Example 190], the IC50 was over 10000 nM at Human recombinant MMP-1 (value outside parenthesis) and 166 nM at Human recombinant MMP-2 (value outside parenthesis).

Regarding `O=C(NO)C1(S(=O)(=O)c2ccc(OCCCc3ccnc(-c4ccccc4)c3)cc2)CCOCC1` [Example 197], the IC50 at Human recombinant MMP-1 (value outside parenthesis) is over 10000 nM; on Human recombinant MMP-2 (value outside parenthesis) it was 13.2 nM.

Consider `O=C(CCCc1ccc(S(=O)(=O)C2(C(=O)NO)CCOCC2)cc1)c1cccc(-c2ccccc2)c1` [Example 219], for which the results for the IC50 on Human recombinant MMP-1 (value outside parenthesis) and on Human recombinant MMP-2 (value outside parenthesis) were over 10000 nM and 60.8 nM, respectively.

Take `O=C(CCCOc1ccc(S(=O)(=O)C2(C(=O)NO)CCOCC2)cc1)Nc1ccc(OC(F)(F)F)cc1` [Example 228]: the values for the IC50 at Human recombinant MMP-1 (value outside parenthesis) and on Human recombinant MMP-2 (value outside parenthesis) were 6870 nM and 11.4 nM, respectively.

In the case of `Cc1cc(OC(F)(F)F)ccc1NC(=O)CCCOc1ccc(S(=O)(=O)C2(C(=O)NO)CCOCC2)cc1` [Example 229], the values for the IC50 at Human recombinant MMP-1 (value outside parenthesis) and on Human recombinant MMP-2 (value outside parenthesis) were 5030 nM and 12.2 nM, respectively.

In the case of `COc1ccc(/C(C#N)=C/CCCOc2ccc(S(=O)(=O)C3(C(=O)NO)CCN(C4CC4)CC3)cc2)cc1` [Example 233], the values for the IC50 on Human recombinant MMP-1 (value outside parenthesis) and at Human recombinant MMP-2 (value outside parenthesis) were over 10000 nM and 25.5 nM, respectively.

For `CN(C(=O)CCCOc1ccc(S(=O)(=O)C2(C(=O)NO)CCOCC2)cc1)c1ccc(OC(F)(F)F)cc1` [Example 249], the IC50 at Human recombinant MMP-1 (value outside parenthesis) is over 10000 nM; on Human recombinant MMP-2 (value outside parenthesis), 226 nM.

Take `O=C(CCCOc1ccc(S(=O)(=O)C2(C(=O)NO)CCOCC2)cc1)Nc1ccc(OC(F)(F)F)cc1` [Example 250]: the results for the IC50 at Human recombinant MMP-1 (value outside parenthesis) and on Human recombinant MMP-2 (value outside parenthesis) were 4410 nM and 2.5 nM, respectively.

As to `Cc1cc(NC(=O)CCCOc2ccc(S(=O)(=O)C3(C(=O)NO)CCOCC3)cc2)ccc1OC(C)C` [Example 290], the IC50 on Human recombinant MMP-1 (value outside parenthesis) was over 10000 nM; at Human recombinant MMP-2 (value outside parenthesis), 590 nM.

Regarding `O=C(NO)C1(S(=O)(=O)c2ccc(OCCCc3cncc(-c4ccc(F)cc4)c3)cc2)CCOCC1` [Example 523], the IC50 on Human recombinant MMP-1 (value outside parentheses) came to 8070 nM; on Human recombinant MMP-2 (value outside parentheses), 162 nM.

For `O=C(NO)C1(S(=O)(=O)c2ccc(OCCCc3cncc(-c4ccccc4)c3)cc2)CCOCC1` [Example 524], the 50% inhibitory concentration (IC50) was over 10000 nM on Human recombinant MMP-1 (value outside parentheses) and 38.3 nM on Human recombinant MMP-2 (value outside parentheses).

Turning to `O=C(NO)C1(S(=O)(=O)c2ccc(OCCCc3cc(-c4ccc(F)cc4F)cs3)cc2)CCOCC1` [Example 587], the IC50 was over 10000 nM on Human recombinant MMP-1 (value outside parentheses) and 81.7 nM at Human recombinant MMP-2 (value outside parentheses).

`CCN1CCC(C(=O)NO)(S(=O)(=O)c2ccc(OCCCSc3nc4ccccc4s3)cc2)CC1` [Example 591]: the IC50 at Human recombinant MMP-1 (value outside parentheses) is over 10000 nM; on Human recombinant MMP-2 (value outside parentheses), 3.5 nM.

In the case of `O=C(NO)C1(S(=O)(=O)c2ccc(OCCCc3cccc(-c4cccs4)c3)cc2)CCOCC1` [Example 595], the IC50 on Human recombinant MMP-1 (value outside parentheses) is over 10000 nM; at Human recombinant MMP-2 (value outside parentheses) it was 482 nM.

With `O=C(Cc1csc2ccccc12)NCCOc1ccc(S(=O)(=O)C2(C(=O)NO)CCOCC2)cc1` [Example 596], the IC50 at Human recombinant MMP-1 (value outside parentheses) is over 10000 nM; on Human recombinant MMP-2 (value outside parentheses), 10.3 nM.

`O=C(NCCOc1ccc(S(=O)(=O)C2(C(=O)NO)CCOCC2)cc1)c1cc2ccccc2[nH]1` [Example 599]: the figures for the IC50 at Human recombinant MMP-1 (value outside parentheses) and on Human recombinant MMP-2 (value outside parentheses) were over 10000 nM and under 0.1 nM, respectively.

As for `O=C(NO)C1(S(=O)(=O)c2ccc(OCCCc3cc(-c4ccc(OC(F)(F)F)cc4)cs3)cc2)CCOCC1` [Example 608], the IC50 on Human recombinant MMP-1 (value outside parentheses) is over 10000 nM; on Human recombinant MMP-2 (value outside parentheses) it was 342 nM.

Take `N#Cc1ccc(-c2cccc(CCCOc3ccc(S(=O)(=O)C4(C(=O)NO)CCOCC4)cc3)c2)cc1` [Example 624]: the values for the IC50 at Human recombinant MMP-1 (value outside parentheses) and at Human recombinant MMP-2 (value outside parentheses) were over 10000 nM and 214 nM, respectively.

For `O=C(NO)C1(S(=O)(=O)c2ccc(OCCCc3cccc(-c4ccc([N+](=O)[O-])cc4)c3)cc2)CCOCC1` [Example 626], the IC50 on Human recombinant MMP-1 (value outside parentheses) was over 10000 nM; at Human recombinant MMP-2 (value outside parentheses), 143 nM.

As to `O=C(NO)C1(S(=O)(=O)c2ccc(OCCCc3cccc(-c4ccc5c(c4)OCO5)c3)cc2)CCOCC1` [Example 628], the results for the IC50 on Human recombinant MMP-1 (value outside parentheses) and at Human recombinant MMP-2 (value outside parentheses) were over 10000 nM and 1700 nM, respectively.

Take `O=C(NO)C1(S(=O)(=O)c2ccc(OCCCc3cccc(-c4ccc(F)cc4F)c3)cc2)CCOCC1` [Example 630]: the IC50 is over 10000 nM at Human recombinant MMP-1 (value outside parentheses) and 1170 nM on Human recombinant MMP-2 (value outside parentheses).

On to `O=C(NO)C1(S(=O)(=O)c2ccc(OCCCc3cccc(-c4ccsc4)c3)cc2)CCOCC1` [Example 632], for which the IC50 on Human recombinant MMP-1 (value outside parentheses) is over 10000 nM; on Human recombinant MMP-2 (value outside parentheses), 91 nM.

Turning to `O=C(NO)C1(S(=O)(=O)c2ccc(OCCCc3cccc(-c4ccoc4)c3)cc2)CCOCC1` [Example 637], the values for the IC50 at Human recombinant MMP-1 (value outside parentheses) and on Human recombinant MMP-2 (value outside parentheses) were over 10000 nM and 138 nM, respectively.
